≈ marks a conversion by molar mass, not a printed value. Peptide text beside a SMILES is read from it.
Legend:
[1] = test system: E. faecium ATCC 700221 (vancomycin-resistant strain); assay type: cell-based, Enterococcus faecium; conditions: ATCC 700221, 20 h
Excerpt: (§1) The following Gram-negative bacteria were used in our study: A. baumannii ATCC 19606, E. coli ATCC 11775, E. coli AIC221 (E. coli MG1655 phnE_2::FRT), E. coli AIC222 (E. coli MG1655 pmrA53 phnE_2::FRT (colistin resistant)), K. pneumoniae ATCC 13883, P. aeruginosa PAO1 and P. aeruginosa PA14. The following Gram-positive bacteria were also used in our study: S. aureus ATCC 12600, S. aureus ATCC BAA-1556 (methicillin-resistant strain), E. faecalis ATCC 700802 (vancomycin-resistant strain) and E. faecium ATCC 700221 (vancomycin-resistant strain). Bacteria were grown from frozen stocks and plated on Luria–Bertani (LB) or Pseudomonas isolation agar plates (P. aeruginosa strains) and incubated overnight at 37 °C. After the incubation period, a single colony was transferred to 5 ml of LB medium, and cultures were incubated overnight (16 h) at 37 °C. The following day, an inoculum was prepared by diluting the overnight cultures 1:100 in 5 ml of the respective media and incubating them at 37 °C until bacteria reached logarithmic phase (OD600 = 0.3–0.5).
(§2) The in vitro antimicrobial activity of the peptides was assessed by using the broth microdilution assay. […] Aqueous solutions of the peptides were added to the plate at concentrations ranging from 1 to 64 μmol l^−1. […] The optical density of the plates was measured at 600 nm using a spectrophotometer. All assays were done as three biological replicates.

[2] = test system: HEK293T cells; conditions: 24 h
Experimental: HEK293T cells were obtained from the American Type Culture Collection (CRL-3216). The cells were cultured in high-glucose Dulbecco’s modified Eagle’s medium supplemented with 1% penicillin and streptomycin (antibiotics) and 10% fetal bovine serum and grown at 37 °C in a humidified atmosphere containing 5% CO2.
One day before the experiment, an aliquot of 100 μl of the cells at 50,000 cells per ml was seeded into each well of the cell-treated 96-well plates used in the experiment (that is, 5,000 cells per well). […] After the incubation period, we performed the 3-(4,5-dimethylthiazol-2-yl)-2,5-diphenyltetrazolium bromide tetrazolium reduction assay (MTT assay)[53]. The MTT reagent was dissolved at 0.5 mg ml^−1 in medium without phenol red and was used to replace cell culture supernatants containing the peptides (100 μl per well), and the samples were incubated for 4 h at 37 °C in a humidified atmosphere containing 5% CO2 yielding the insoluble formazan salt. The resulting salts were then resuspended in hydrochloric acid (0.04 mol l^−1) in anhydrous isopropanol and quantified by spectrophotometric measurements of absorbance at 570 nm. All assays were done as three biological replicates.
Unless otherwise stated, all assays were performed in three independent biological replicates as indicated in each figure legend and Methods sections. The cytotoxic activities values were estimated using non-linear regression based on the range of concentrations screened and were shown as the values that cause lysis of 50% of the cells in the experiment. Two technical replicates were performed in the cytotoxicity assays within each of the three biological replicates.

[3] = test system: 11 clinically relevant bacterial pathogens; assay type: cell-based; conditions: Supplementary Dataset 2; against the 11 pathogens tested
Excerpt: as §1, §2

[4] = test system: A. baumannii ATCC 19606; assay type: cell-based, Acinetobacter baumannii; conditions: ATCC 19606, 20 h
Excerpt: as §1, §2

| SMILES | Minimal inhibitory concentration, E. faecium ATCC700221-VRE [1] | CC50 [2] | TI (therapeutic index) [2] | Active or Inactive [3] | Minimal inhibitory concentration, A. baumannii ATCC19606 [4] |
| --- | --- | --- | --- | --- | --- |
| CC[C@H](C)[C@H](NC(=O)[C@@H](NC(=O)[C@H](CCSC)NC(=O)[C@@H](N)Cc1c[nH]c2ccccc12)[C@@H](C)O)C(=O)N[C@@H](Cc1c[nH]cn1)C(=O)N[C@@H](C)C(=O)N[C@@H](CC(C)C)C(=O)N[C@@H](CCCCN)C(=O)N[C@@H](CC(C)C)C(=O)N[C@@H](CO)C(=O)N[C@@H](CC(C)C)C(=O)N[C@@H](CO)C(=O)N[C@@H](Cc1ccccc1)C(=O)N[C@@H](CCCCN)C(=O)N[C@@H](CC(C)C)C(=O)O [Mammutin-1] (H-WMTIHALKLSLSFKL-OH; N-terminus and C-terminus assumed) | 2 µM (≈ 3.58 µg/mL) | > 128 µM | > 64 | Active |  |
| CC[C@H](C)[C@H](NC(=O)[C@H](CCCCN)NC(=O)[C@H](CO)NC(=O)[C@H](CC(N)=O)NC(=O)[C@H](Cc1ccccc1)NC(=O)[C@H](Cc1c[nH]cn1)NC(=O)[C@H](Cc1ccccc1)NC(=O)[C@@H](N)Cc1c[nH]c2ccccc12)C(=O)N[C@@H](CC(C)C)C(=O)N[C@@H](CC(C)C)C(=O)N[C@@H](CC(C)C)C(=O)N[C@H](C(=O)NCC(=O)N[C@@H](CC(C)C)C(=O)O)[C@@H](C)O [Mylodonin-1] (H-WFHFNSKILLLTGL-OH; N-terminus and C-terminus assumed) | 8 µM (≈ 13.5 µg/mL) | > 128 µM | > 16 | Active |  |
| CC[C@H](C)[C@H](NC(=O)[C@H](CC(C)C)NC(=O)[C@H](Cc1c[nH]cn1)NC(=O)[C@@H](NC(=O)[C@H](CC(C)C)NC(=O)[C@H](CC(C)C)NC(=O)[C@H](Cc1c[nH]cn1)NC(=O)CN)[C@@H](C)CC)C(=O)NCC(=O)N[C@@H](CCCCN)C(=O)N[C@@H](C)C(=O)N[C@H](C(=O)N[C@@H](CC(C)C)C(=O)N[C@@H](C)C(=O)N[C@@H](CC(C)C)C(=O)O)[C@@H](C)O [Arctoterin-1] (H-GHLLIHLIGKATLAL-OH; N-terminus and C-terminus assumed) |  | > 128 µM |  | Active | 64 µM (≈ 100 µg/mL) |
| CC[C@H](C)[C@H](NC(=O)[C@H](CCCCN)NC(=O)[C@@H](NC(=O)[C@H](Cc1c[nH]c2ccccc12)NC(=O)[C@@H](N)CCCCN)[C@@H](C)O)C(=O)N[C@@H](Cc1ccc(O)cc1)C(=O)N[C@@H](CC(C)C)C(=O)N1CCC[C@H]1C(=O)N[C@@H](CC(C)C)C(=O)N[C@@H](CC(C)C)C(=O)N[C@@H](CC(C)C)C(=O)N1CCC[C@H]1C(=O)N[C@@H](CC(C)C)C(=O)O [Bisonin-2] (H-KWTKIYLPLLLPL-OH; N-terminus and C-terminus assumed) | 8 µM (≈ 12.8 µg/mL) | > 128 µM |  | Active | 8 µM (≈ 12.8 µg/mL) |
| CC[C@H](C)[C@H](NC(=O)[C@H](Cc1ccccc1)NC(=O)[C@H](CC(N)=O)NC(=O)[C@@H](NC(=O)[C@@H](NC(=O)[C@H](Cc1c[nH]cn1)NC(=O)[C@@H](N)CC(C)C)[C@@H](C)O)[C@@H](C)CC)C(=O)N[C@H](C(=O)N[C@@H](CCCCN)C(=O)N[C@@H](CO)C(=O)N[C@@H](CC(C)C)C(=O)N[C@@H](CC(C)C)C(=O)N[C@@H](CC(C)C)C(=O)O)[C@@H](C)CC [Bisonin-1] (H-LHTINFIIKSLLL-OH; N-terminus and C-terminus assumed) | 16 µM (≈ 24.4 µg/mL) | > 128 µM | > 8 | Active |  |
